Results reported in US20140128472A1, “TREATMENT AND PREVENTION OF DISEASES RELATED TO OXIDATIVE STRESS” (UNIVERSITY OF PÉCS, priority 2011, published 2014).
Entries after “also recorded” stand apart in the source; their conditions may differ.

Tests used:
[1] = system: thoracic and abdominal aorta, renal and femoral arteries; test: Insulin-induced relaxation of isolated arterial segments after oral tyrosine isomer supplementation of rats; type: in vivo, Sprague-Dawley rats; conditions: for Insulin-induced relaxation, abdominal aorta, femoral (and renal) arteries / Insulin-induced relaxation, thoracic aorta: 1.76 mg/die per os; for Insulin-induced relaxation, abdominal aorta, femoral (and renal) arteries: compared to control; for Insulin-induced relaxation, thoracic aorta: compared to control/other groups; for Chronic effects on insulin-induced vasorelaxation after washout: 8th week, 4 weeks washout, all segments
Protocol: The experiments were carried out with the permission of the Hungarian Local Animal Experiment Committee. Shortly after weaning male CFY rats (a strain of the Sprague-Dawley rat) were placed in individual cages and held on regular diet. After two hours of fasting animals (4-5 week-old, 80-140 g) were loaded with 1.76 mg/die para-, meta- or ortho-tyrosine (p-, m-, o-tyr; Sigma-Aldrich, Inc., St. Louis, Mo. 63178, USA) dissolved in saline or vehicle (saline only) by gavage (per os) six days of the week. After one month treatment, animals were either anaesthetized with ether and were decapitated with a guillotine or p-, m-, o-tyr and vehicle supplementation was discontinued (“washout” period) and they were sacrificed […] (FIG. 8.A). The descending thoracic and abdominal aorta, renal and femoral arteries were removed and cleaned from connective tissue (FIG. 19). Sections were immediately hydrolyzed for HPLC analysis or were used for vascular reactivity studies.
(§1) In further tyrosine isomer incorporation studies when effects of chronic oral p-Tyr and o-Tyr supplementation of rats on the o-Tyr level and insulin-induced relaxation of isolated arterial segments were studied, 18 Male Sprague-Dawley rats (5-6 week-old) were used. Rats were orally supplied with either 1.76 mg/die of p-Tyr or o-Tyr or vehicle during six days per week for four weeks. […] At the end of four-week treatment, HPLC and vasomotor studies were performed. In another group of rats, p-Tyr/o-Tyr supplementation was discontinued for four weeks (“washout” period), after which they were sacrificed for HPLC and vasomotor studies.
The modified method of Fésüs et al. (Fésüs2007) was used. The distal parts of the vessels were dissected into 2 mm long segments in ice-cold Krebs buffer and rings were mounted on two stainless steel wires (40 μm in diameter) in a Danish Multimyograph Model 610M (DMT-USA Inc., Atlanta, Ga., USA). Vessels were bathed in Krebs buffer (containing 119 mM NaCl, 4.7 mM KCl, 1.2 mM KH2PO4, 25 mM NaHCO3, 1.2 mM Mg2SO4, 11.1 mM glucose, 1.6 mM CaCl2*2H2O, pH 7.4) and gassed with 5% CO2 and 95% O2 at 37° C. The resting tension/internal circumference relationship for each vessel was determined and then the internal circumference was set to 0.9×L100, where L100 is the internal circumference the vessel would have had in vivo when relaxed under a transmural pressure of 100 mmHg After this normalization procedure vessels were allowed to stabilize for 30 min, and then isometric tension was continuously recorded. Rings were preconstricted with 100 nM epinephrine. After reaching a stabile contraction plateau, relaxant responses to increasing doses of insulin were assessed. The rate of relaxation was expressed as percentage of the contraction evoked by epinephrine (100%). Para-, meta-, ortho-tyrosine or vehicle were added to the vessel chamber 10 minutes before the addition of epinephrine and 30 minutes before the addition of insulin.

[2] = Body weight of rats during four-week tyrosine isomer supplementation; type: in vivo, Sprague-Dawley rats; conditions: four weeks, 1.76 mg/die, vs vehicle
Protocol: as §1

Row | SMILES | Insulin-induced relaxation, abdominal aorta, femoral (and renal) arteries ([1]; 4th week) | Insulin-induced relaxation, thoracic aorta ([1]; 4th week) | Insulin-induced relaxation, all three isolated segments compared to the p-Tyr-treated group ([1]; 4th week, thoracic and abdominal aorta, femoral artery) | Chronic effects on insulin-induced vasorelaxation after washout [1] | Body weight [2]
1 | N[C@@H](Cc1ccccc1O)C(=O)O [o-Tyr, Ortho-L-tyrosine] | significantly diminished response to insulin | no significant difference; also recorded: did not observe any significant further decline of response to insulin | markedly attenuated insulin-induced relaxations | completely abolished | no difference between the groups
2 | N[C@@H](Cc1ccc(O)cc1)C(=O)O [p-Tyr, Para-L-tyrosine] | could not detect significant difference | increased insulin-induced relaxations only in the thoracic aorta; also recorded: increased relaxation in response to insulin; also recorded: higher vasorelaxation response to insulin; also recorded: greater vasorelaxation |  | completely abolished | no difference between the groups
